Measurements from patent US11192893B2, “Pyrazoloquinazolinone antitumor agents” (The Rockefeller University, priority 2017, dated 2021).
Read-outs that look alike come from different tables or passages of the source.

Key:
[1] = target: human cytoplasmic dynein 2 (Homo sapiens (Human), UniProt Q8NCM8); experiment: microtubule gliding assay with GFP-dynein 2; type: biochemical; conditions: for Gliding velocity: dynein 2-driven microtubule gliding, test compounds at 20 pM (so in the source), 0.05 mg/mL casein, 2% DMSO, solvent control 126 ± 17; for Gliding velocity / IC50: 1 mM MgATP; for IC50: Table 1, dose-dependent analysis of dynein 2-driven microtubule gliding
Experimental: Compounds were tested employing a microtubule gliding assay, a standard biochemical assay for motor proteins. […] We purified an N-terminally GFP-tagged motor-domain construct of dynein 2 using an insect cell expression system [Schmidt et al., Nature. 2015; 518(7539):435-8]. The GFP tag in this construct allowed immobilization on passivated glass coverslips used in microtubule gliding assays. GFP-dynein 2, in the presence of ATP (1 mM), moved microtubules with a velocity of 128±14 nm/s. The mean velocity of dynein 2-driven microtubule gliding in the presence of control solvent (2% DMSO) and test compounds at 20 pM were compared. All motility assays were run at 1 mM MgATP, 0.05 mg/mL casein, and 2% DMSO. Representative examples of compounds of the invention provided the results shown as “Gliding velocity in nm/s” in Table 1. For some compounds, dose-dependent analyses were performed, and the results are shown as “IC50 in μM” in Table 1.
Microtubule surface gliding assay. Cytoplasmic dynein was purified from bovine brains as described by Bingham et al. [Methods Enzymol. 298, 171 (1998)]. K560, a 560-amino acid N-terminal fragment of human conventional kinesin (kinesin-1) with a C-terminal His-tag, was expressed in bacteria and purifed as described by Woehlke et al., [Cell 90, 207 (1997)]. Motility assays were performed on a Zeiss Axiovert 200M wide-field microscope equipped with a Zeiss 100×/1.45 NA α-Plan-Fluar objective. Data were captured with an EM-CCD camera (iXon DU-897, Andor Technology) with a 0.3-second exposure time and frame rate of 0.5 second^−1. Microtubule gliding assays were performed as described by Kapoor and Mitchison [Proc. Natl. Acad. Sci. U.S.A 96, 9106 (1999)] with some modifications. An approximately 6-μL flow chamber was filled with motor protein (100 μg/mL dynein or 50 μg/mL K560) in motor dilution buffer (80 mM Pipes, 1 mM EGTA, 2 mM MgCl2, 2 mM DTT, 50 μM ATP, pH 6.8 with KOH). After a 2-minute incubation, excess protein was washed out with 20 μL of PEM80 buffer (80 mM Pipes, 1 mM EGTA, 2 mM MgCl2, pH 6.8 with KOH) and the surface was blocked against non-specific microtubule binding by filling the chamber with blocking protein (0.5 mg/mL α-casein for dynein experiments and 1 mg/mL BSA for K560 experiments) in motor dilution buffer. After 2 minutes the chamber was perfused with 18 μL of reaction mix (PEM80, 40 mM KC 1, blocking protein [1 mg/mL α-casein for dynein experiments; 1 mg/mL BSA for K560 experiments], 2 mM MgATP, 20 μM taxol, 0.1 μM rhodamine-labeled microtubules, oxygen depletion system [4 mM DTT, 2 mM glucose, 40 μg/mL glucose oxidase, 35 μg/mL catalase], 2.5% DMSO, and test compounds as appropriate). The flow chamber was then sealed with valap. After allowing the microtubules to bind to the surface for 5 minutes, the gliding microtubules were visualized by time-lapse fluorescence microscopy. Velocities were measured by kymography using Metamorph software (Molecular Devices), and the velocity for each microtubule was determined from the total distance during the time observed.
For washout experiments, the chamber was left unsealed after the initial reaction mix containing inhibitor was added. Microtubules were allowed to bind to the surface for 5 minutes, and then a time-lapse movie was acquired. The inhibitor was then washed out of the chamber by flowing in 20 μL of fresh reaction mix (PEM80, 40 mM KCl, 1 mg/mL α-casein, 2 mM MgATP, 20 μM taxol, oxygen depletion system, and 2.5% DMSO) without additional microtubules or inhibitor. The chamber was sealed, and additional time-lapse movies were acquired.

[2] = test system: Hedgehog pathway activity; experiment: Shh-Light luciferase reporter assay of Hedgehog pathway activity (Shh-Light2 cells, SAG-stimulated); type: cell-based; conditions: for activity at 2 µM: 2 μM compound, read-out: SHH-light % residual @ 2 μM; for activity at 20 µM: 20 μM compound, read-out: SHH-light % residual @ 20 μM
Experimental: To examine the inhibition of dynein 2 in cell-based assays, an established luciferase reporter-based cellular assay of Hedgehog pathway activity was employed [Taipale et al., Nature. 2000; 406(6799): 1005-9]. Signaling in this pathway depends on the function of dynein 2. In this setting, expression of luciferase driven by Hedgehog pathway activity was inhibited by compound 5 with an IC50 value of 0.9±0.5 μM. […] The potencies of these compounds in this cell-based assay match the rank-order of dynein 2 inhibition in vitro. In these assays, Hedgehog pathway activity was stimulated using the Synthetic Agonist of Smoothened (SAG). This compound competes with many Hedgehog pathway inhibitors for binding to Smoothened, a key node in the signaling pathway.
SHH-Light Assay (Steinman et al. eLife 2017; 6:e25174.)
NIH-3T3 cells stably expressing a luciferase reporter downstream of a Gli binding site (Shh-Light2 cells, RRID: CVCL_2721) were maintained in DMEM with 10% bovine calf serum (BCS). Cells were seeded at a density of 30,000 cells/well in 96-well tissue culture-treated plates (Corning, cat #353072) in 100 μL in DMEM+10% BCS, and incubated for 48 hr (Taipale et al., 2000). Wells were washed briefly with PBS. Next […] of low serum media (DMEM+0.5% BCS) containing smoothened agonist (SAG, 500 nM), and either solvent control (0.2% DMSO) or test compound (serial three-fold dilutions of each inhibitor starting from 20 μM) were added to the wells. After 28-32 hr of inhibitor treatment, cells were washed with 50 μL PBS and lysed for >30 min in 30 μL Passive Lysis Buffer (Promega Dual Luciferase kit, cat E1910). 5 uL of each lysate was transferred to white, solid-bottom 96-well plates (Greiner, cat #655075), followed by rapid addition (within 30 s) of 30 μL of Luciferase Assay Reagent using a multichannel pipette. Luminescence for each condition was read using a Synergy Neo plate reader (5 s integration time per well). Cell line identity was confirmed by measurement of the degree of response to Hedgehog pathway stimulation by the synthetic agonist SAG and using previously published values from our groups and others as references (Firestone et al., 2012; Hyman et al., 2009).

[3] = test system: medulloblastoma; conditions: human patient; cited from earlier work
[4] = test system: basal cell carcinoma; conditions: 33 human patients; cited from earlier work
[5] = target: human dynein 1 (Homo sapiens (Human), UniProt Q14204); experiment: microtubule gliding assay with GFP-dynein 1; type: biochemical; conditions: washout
Description: To examine the inhibition of dynein 1 by compound 5 in vitro we generated recombinant human protein. We expressed and purified a GFP-tagged human dynein 1 (AA 1320-'16'16) construct similar to the one we used for GFP dynein 2. […] GFP-dynein 1 moves microtubules at 510±60 nm/s, a velocity expected based on studies of other mammalian dynein 1 homologs (n=7).
Microtubule surface gliding assay. Cytoplasmic dynein was purified from bovine brains as described by Bingham et al. [Methods Enzymol. 298, 171 (1998)]. K560, a 560-amino acid N-terminal fragment of human conventional kinesin (kinesin-1) with a C-terminal His-tag, was expressed in bacteria and purifed as described by Woehlke et al., [Cell 90, 207 (1997)]. Motility assays were performed on a Zeiss Axiovert 200M wide-field microscope equipped with a Zeiss 100×/1.45 NA α-Plan-Fluar objective. Data were captured with an EM-CCD camera (iXon DU-897, Andor Technology) with a 0.3-second exposure time and frame rate of 0.5 second^−1. […] After allowing the microtubules to bind to the surface for 5 minutes, the gliding microtubules were visualized by time-lapse fluorescence microscopy. Velocities were measured by kymography using Metamorph software (Molecular Devices), and the velocity for each microtubule was determined from the total distance during the time observed. […]

[6] = test system: dynein 1 construct with a mutation in the AAA3 domain (Walker A residue); experiment: ATPase activity of dynein 1 construct with AAA3 mutation; type: biochemical
Description: ATPase activity at AAA1 is linked to individual steps of the motor, while the AAA3 site plays a regulatory role. Two lines of evidence indicate that compounds of the invention target the AAA1 site specifically. First, compound 5 inhibits the activity of a dynein 1 construct with a mutation in the AAA3 domain (Walker A residue). In this construct, the ATPase activity is expected to be mainly due to the AAA1 site. Second, the potency of inhibition of the AAA3 mutant is similar to that of the microtubule-stimulated ATPase rate. Sequence comparisons indicate that the AAA1 sites in dynein 1 and 2 are highly conserved, while the other AAA sites are less conserved. In fact, the residues within 4 Å of the bound nucleotide in AAA1 are identical between dynein 1 and 2.

[7] = SAG 500 nM, read-out: IC50, luciferase expression driven by Hedgehog pathway activity
[8] = Table 2, SAG 500 nM, 28-32 hr treatment, read-out: Shh-light IC50

Chain of human cytoplasmic dynein 2 (Q8NCM8 1091-4307 limits assumed): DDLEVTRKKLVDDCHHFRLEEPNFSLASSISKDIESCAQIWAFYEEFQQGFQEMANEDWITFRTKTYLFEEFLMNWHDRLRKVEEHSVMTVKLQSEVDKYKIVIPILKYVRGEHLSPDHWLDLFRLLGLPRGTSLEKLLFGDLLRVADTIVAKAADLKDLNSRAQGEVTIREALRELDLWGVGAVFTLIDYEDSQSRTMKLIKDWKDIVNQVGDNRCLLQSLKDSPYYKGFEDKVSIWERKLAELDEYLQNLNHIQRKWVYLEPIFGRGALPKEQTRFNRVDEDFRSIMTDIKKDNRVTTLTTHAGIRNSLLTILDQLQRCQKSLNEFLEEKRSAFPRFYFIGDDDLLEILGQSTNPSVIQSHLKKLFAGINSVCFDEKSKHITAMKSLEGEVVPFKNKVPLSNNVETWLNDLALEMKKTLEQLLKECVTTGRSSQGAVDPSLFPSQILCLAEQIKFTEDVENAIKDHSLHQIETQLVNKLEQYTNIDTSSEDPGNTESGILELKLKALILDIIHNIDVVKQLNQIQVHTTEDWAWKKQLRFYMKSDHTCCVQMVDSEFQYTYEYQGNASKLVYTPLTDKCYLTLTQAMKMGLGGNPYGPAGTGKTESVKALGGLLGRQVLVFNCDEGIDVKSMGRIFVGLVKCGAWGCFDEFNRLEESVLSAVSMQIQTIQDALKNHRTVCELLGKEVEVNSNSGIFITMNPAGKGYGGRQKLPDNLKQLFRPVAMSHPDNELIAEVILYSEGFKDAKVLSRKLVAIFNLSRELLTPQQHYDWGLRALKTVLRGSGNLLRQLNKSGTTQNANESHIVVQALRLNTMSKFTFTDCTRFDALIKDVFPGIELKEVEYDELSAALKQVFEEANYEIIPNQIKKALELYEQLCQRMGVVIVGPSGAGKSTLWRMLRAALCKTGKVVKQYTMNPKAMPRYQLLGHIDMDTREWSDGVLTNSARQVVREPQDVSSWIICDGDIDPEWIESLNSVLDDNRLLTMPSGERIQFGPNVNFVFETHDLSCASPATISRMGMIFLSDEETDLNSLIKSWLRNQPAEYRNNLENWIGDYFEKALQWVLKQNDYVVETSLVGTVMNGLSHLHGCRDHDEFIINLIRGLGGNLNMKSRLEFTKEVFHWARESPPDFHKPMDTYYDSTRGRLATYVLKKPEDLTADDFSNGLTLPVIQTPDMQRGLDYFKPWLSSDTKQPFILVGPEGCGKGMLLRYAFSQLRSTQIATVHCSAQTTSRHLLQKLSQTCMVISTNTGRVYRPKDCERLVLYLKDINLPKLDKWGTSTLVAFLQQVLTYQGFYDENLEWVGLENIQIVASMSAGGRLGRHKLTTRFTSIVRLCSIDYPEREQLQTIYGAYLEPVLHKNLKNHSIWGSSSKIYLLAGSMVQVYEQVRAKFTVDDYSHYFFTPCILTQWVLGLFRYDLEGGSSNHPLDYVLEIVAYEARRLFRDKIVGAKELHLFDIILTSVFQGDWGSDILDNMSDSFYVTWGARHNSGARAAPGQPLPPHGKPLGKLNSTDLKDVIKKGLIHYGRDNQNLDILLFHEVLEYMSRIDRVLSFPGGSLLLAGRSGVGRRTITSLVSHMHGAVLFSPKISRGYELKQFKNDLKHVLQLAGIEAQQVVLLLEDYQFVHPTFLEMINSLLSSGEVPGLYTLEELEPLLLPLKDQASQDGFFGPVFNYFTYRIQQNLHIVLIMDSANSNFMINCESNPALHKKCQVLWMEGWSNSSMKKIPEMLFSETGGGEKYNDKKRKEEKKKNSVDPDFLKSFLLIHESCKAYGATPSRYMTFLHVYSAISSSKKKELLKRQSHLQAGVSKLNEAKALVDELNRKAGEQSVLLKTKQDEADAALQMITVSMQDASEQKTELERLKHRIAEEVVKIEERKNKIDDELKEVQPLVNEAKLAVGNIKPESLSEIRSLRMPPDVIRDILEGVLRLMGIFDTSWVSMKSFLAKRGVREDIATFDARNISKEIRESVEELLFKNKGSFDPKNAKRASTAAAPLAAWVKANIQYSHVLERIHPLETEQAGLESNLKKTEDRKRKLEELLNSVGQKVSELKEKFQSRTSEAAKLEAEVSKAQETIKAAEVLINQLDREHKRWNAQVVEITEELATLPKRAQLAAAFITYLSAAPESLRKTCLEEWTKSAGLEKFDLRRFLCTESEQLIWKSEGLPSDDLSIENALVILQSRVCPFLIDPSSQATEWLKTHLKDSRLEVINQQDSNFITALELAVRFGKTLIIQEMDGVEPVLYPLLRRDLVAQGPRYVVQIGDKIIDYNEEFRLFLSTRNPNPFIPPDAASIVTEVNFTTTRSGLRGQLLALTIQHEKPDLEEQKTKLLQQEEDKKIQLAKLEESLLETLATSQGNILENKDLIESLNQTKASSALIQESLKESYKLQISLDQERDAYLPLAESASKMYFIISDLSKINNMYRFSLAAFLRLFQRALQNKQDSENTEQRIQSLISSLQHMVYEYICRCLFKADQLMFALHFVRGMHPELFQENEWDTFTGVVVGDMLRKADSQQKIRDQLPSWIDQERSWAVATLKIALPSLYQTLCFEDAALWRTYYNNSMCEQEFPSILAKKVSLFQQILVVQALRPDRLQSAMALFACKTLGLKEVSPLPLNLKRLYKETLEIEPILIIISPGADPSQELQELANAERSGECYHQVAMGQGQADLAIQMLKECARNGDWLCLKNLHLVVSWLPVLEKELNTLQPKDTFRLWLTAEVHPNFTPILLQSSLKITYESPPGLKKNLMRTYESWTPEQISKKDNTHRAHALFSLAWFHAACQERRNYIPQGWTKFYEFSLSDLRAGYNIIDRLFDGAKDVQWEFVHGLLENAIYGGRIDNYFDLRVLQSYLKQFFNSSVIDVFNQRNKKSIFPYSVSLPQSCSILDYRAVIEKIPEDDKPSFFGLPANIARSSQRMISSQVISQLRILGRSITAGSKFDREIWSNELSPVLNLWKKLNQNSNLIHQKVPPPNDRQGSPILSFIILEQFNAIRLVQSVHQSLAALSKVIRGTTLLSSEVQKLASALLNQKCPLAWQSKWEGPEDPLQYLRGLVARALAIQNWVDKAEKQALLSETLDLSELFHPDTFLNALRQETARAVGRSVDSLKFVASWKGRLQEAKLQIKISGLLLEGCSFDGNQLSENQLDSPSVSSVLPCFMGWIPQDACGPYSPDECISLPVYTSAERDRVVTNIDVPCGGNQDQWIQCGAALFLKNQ

SMILES | Gliding velocity [1] [nm/s] | IC50 [1] [nM] | activity at 2 µM ([2]; SAG 500 nM) [%] | activity at 20 µM ([2]; SAG 500 nM) [%] | IC50 [2, 8] [nM] | also measured
O=c1[nH]c2cc(-c3ccc(Cl)cc3Cl)nn2c2ccccc12 [Example 1, 2-(2,4-dichlorophenyl)-4H-pyrazolo[1,5-a]quinazolin-5-one] | 83 ± 10 |  |  |  |  | 
N#Cc1c(C2(c3ccc(Cl)cc3)CC2)nn2c1[nH]c(=O)c1cc(C(F)(F)F)ccc12 [Example 4, 2-(1-(4-chlorophenyl)cyclopropyl)-5-oxo-7-(trifluoromethyl)-4,5-dihydropyrazolo[1,5-a]quinazoline-3-carbonitrile] | 6 ± 2 | 3300 ± 200 | 41.8 | -4.4 |  | 
CS(=O)(=O)c1ccc(C(=O)Nc2ccc(Cl)c(-c3ccccn3)c2)c(Cl)c1 [GDC-0449] |  |  |  |  |  | clinical response, medulloblastoma [3]: regression of medulloblastoma; clinical response, basal cell carcinoma [4]: clinically significant response
N#Cc1c(C2(c3ccc(Cl)cc3)CC2)nn2c1[nH]c(=O)c1cc(I)ccc12 [Example 5, 2-[1-(4-chlorophenyl)cyclopropyl]-7-iodo-5-oxo-4H-pyrazolo[1,5-a]quinazoline-3-carbonitrile] | 6 ± 2 | 2600 ± 1300 | 24.8 | -5.2 | 1450 | reversibility of inhibition of dynein 2-dependent motility ([1]; washout): reversed following washout; IC50 [2, 7]: 900 ± 500 nM; reversibility of inhibition of dynein 1-dependent microtubule gliding [5]: reversed following washout; inhibition of ATPase activity of AAA3 mutant dynein 1 [6]: inhibits
N#Cc1c(C2(c3ccc(Cl)cc3)CC2)nn2c1[nH]c(=O)c1ccccc12 [Example 3, 2-[1-(4-chlorophenyl)cyclopropyl]-5-oxo-4H-pyrazolo[1,5-a]quinazoline-3-carbonitrile] | 58 ± 14 |  |  |  |  | 
N#Cc1c(-c2ccc(Cl)cc2Cl)nn2c1[nH]c(=O)c1ccccc12 [Example 2, 2-(2,4-dichlorophenyl)-5-oxo-4H-pyrazolo[1,5-a]quinazoline-3-carbonitrile] | 83 ± 10 |  |  | 19.1 |  | IC50 [2, 7]: 5200 ± 5000 nM
N#Cc1c(C2(c3ccc(Cl)cc3)CC2)nn2c(=O)c3ccccc3[nH]c12 [Example 31, 2-[1-(4-Chlorophenyl)cyclopropyl]-9-oxo-4H-pyrazolo[5,1-b]quinazoline-3-carbonitrile] |  | 710 | 30.4 | -1.6 | 660 | 
N#Cc1c(CCCOc2ccc(Cl)cc2)nn2c(=O)c3ccccc3[nH]c12 [Example 29, 2-[3-(4-Chlorophenoxy)propyl]-9-oxo-4H-pyrazolo[5,1-b]quinazoline-3-carbonitrile] |  | 730 | 33.5 | 3.8 | 680 | 
N#Cc1c(C2(c3ccc(Cl)cc3)CC2)nn2c(=O)c3cc(Br)ccc3[nH]c12 [Example 12, 7-Bromo-2-[1-(4-chlorophenyl)cyclopropyl]-9-oxo-4H-pyrazolo[5,1-b]quinazoline-3-carbonitrile] |  | 290 | -3.1 | -1.9 | 290 | 
N#Cc1c(C2CCC(c3ccc(Cl)cc3)CC2)nn2c(=O)c3ccccc3[nH]c12 (stereo not drawn) [Example 27, 2-[4-(4-Chlorophenyl)cyclohexyl]-9-oxo-4H-pyrazolo[5,1-b]quinazoline-3-carbonitrile] |  | 620 | 27.3 | -1.5 | 600 | 
N#Cc1c(CCOc2ccc(Cl)cc2)nn2c(=O)c3ccccc3[nH]c12 [Example 48, 2-[2-(4-Chlorophenoxy)ethyl]-9-oxo-4H-pyrazolo[5,1-b]quinazoline-3-carbonitrile] |  |  | 75.5 | 10.9 |  | 
NC(=O)c1c(CCCO)nn2c(=O)c3ccccc3[nH]c12 [Example 60, 2-(3-Hydroxypropyl)-9-oxo-4H-pyrazolo[5,1-b]quinazoline-3-carboxamide] |  |  | 78.1 | 99 |  | 
O=c1c2ccccc2[nH]c2cc(-c3ccc(Cl)cc3Cl)nn12 [Example 70, 2-(2,4-Dichlorophenyl)-4H-pyrazolo[5,1-b]quinazolin-9-one] |  |  | 109 | 113 |  | 
N#Cc1c(C2CCC(c3ccc(Cl)cc3)CC2)nn2c(=O)c3cc(C(F)(F)F)ccc3[nH]c12 (stereo not drawn) [Example 15, 2-[4-(4-Chlorophenyl)cyclohexyl]-9-oxo-7-(trifluoromethyl)-4H-pyrazolo[5,1-b]quinazoline-3-carbonitrile] |  |  | -3.1 | -4 | 320 | 
